Test results taken from publication PMC9078697, “Discovery and preliminary SAR of 14-aryloxy-andrographolide derivatives as antibacterial agents with immunosuppressant activity” (RSC Advances, 2018).

Legend:
Format in all cases: cell-based
S. aureus = assay: Bacteriostatic screening (growth, OD630) against S. aureus; conditions: for inhibition rate (%) SA: at 250 μM of the tested compound; for inhibition rate SA (symbol /): at 250 μM of tested compound
Procedure: (§1) The strategy in this study was to submit these synthesized compounds to a preliminary screening test against E. coli, S. aureus and E. faecalis (ciprofloxacin was used as a reference compound; see Table 1). […] The tested compound or ciprofloxacin (positive drug) was dissolved in DMSO and diluted with LB liquid medium into a stock solution containing 20% DMSO before use; the stock solution of the carrier was 20% DMSO in LB liquid medium. All the experiments, including blank controls, were performed in triplicate. Bacteriostatic screening was performed by applying a modified protocol of the National Committee on Clinical Laboratory Standards (NCCLS).[29] Briefly, E. coli, S. aureus and E. faecalis cells (American Type Culture Collection, ATCC) were grown in LB plate medium for one passage, then seeded in LB liquid medium and cultured at 37 °C for 12 h. After being diluted 1000 times, 190 μL diluted cells were aliquoted to 96-well plates; then, 10 μL stock solution of carrier or a gradient amount of the tested compound or the positive compound, ciprofloxacin, were added; the final concentration of DMSO was 1% in all wells. The blank controls contained 1% DMSO and LB medium but no bacterial cells.

E. coli = assay: Bacteriostatic screening (growth, OD630) against E. coli; conditions: for inhibition rate EC (symbol /): at 250 μM of tested compound; for inhibition rate (%) EC: at 250 μM of the tested compound
Procedure: as §1

E. faecalis = assay: Bacteriostatic screening (growth, OD630) against E. faecalis; conditions: for IC50: 24 h, IC50 generated when inhibition at 250 μM was higher than 80%; for inhibition rate (%) EF: at 250 μM of the tested compound
Procedure: as §1

| SMILES | inhibition rate (%) SA (S. aureus; 250 µM) | inhibition rate EC (symbol /) (E. coli) | IC50 (E. faecalis) [µM] | inhibition rate (%) EF (E. faecalis) | further results |
| --- | --- | --- | --- | --- | --- |
| C=C1CCC2C3(C)COC(C)(C)OC3CCC2(C)C1CC=C1C(=O)OCC1Oc1ccc([N+](=O)[O-])cc1C(=O)OC (stereo not drawn) [5a1, (14α)-(2′-Carboxymethyl ester-4′-nitro)phenoxy-3,19-acetonylidene andrographolide] | (14) % | / (“/”represents no inhibition or lower than 10% inhibition rate at 250 μM of tested compound) | 51.2 ± 11.6 |  |  |
| C=C1CCC2C3(C)COC(C)(C)OC3CCC2(C)C1CC=C1C(=O)OCC1Oc1ccc([N+](=O)[O-])cc1OC (stereo not drawn) [5a3, (14α)-(2′-Methoxy-4′-nitro)phenoxy-3,19-acetonylidene andrographolide] | (18) % |  |  |  | inhibition rate (%) EC (E. coli): (21) %; inhibition rate (%) EF (E. faecalis; 250 µM): (60) % |
| C=C1CCC2C3(C)COC(C)(C)OC3CCC2(C)C1CC=C1C(=O)OCC1Oc1ccc([N+](=O)[O-])c(F)c1 (stereo not drawn) [5a4, (14α)-(3′-Fluoro-4′-nitro)phenoxy-3,19-acetonylidene andrographolide] |  | / (“/”represents no inhibition or lower than 10% inhibition rate at 250 μM of tested compound) |  | (46) % | inhibition rate SA (symbol /) (S. aureus): / (“/”represents no inhibition or lower than 10% inhibition rate at 250 μM of tested compound) |
| C=C1CCC2C3(C)COC(C)(C)OC3CCC2(C)C1CC=C1C(=O)OCC1Oc1ccc([N+](=O)[O-])c(OC)c1 (stereo not drawn) [5a5, (14α)-(3′-Methoxy-4′-nitro)phenoxy-3,19-acetonylidene andrographolide] | (10) % |  |  |  | inhibition rate (%) EC (E. coli; 250 µM): (12) %; inhibition rate (%) EF (E. faecalis; 250 µM): (73) % |
| C=C1CCC2C3(C)COC(C)(C)OC3CCC2(C)C1CC=C1C(=O)OCC1Oc1ccccc1C(=O)OCC (stereo not drawn) [5a8, (14α)-(2′-Carboxyethyl ester)phenoxy-3,19-acetonylidene andrographolide] |  |  |  | (33) % | inhibition rate (%) SA (S. aureus): (20) %; inhibition rate (%) EC (E. coli): (32) % |
| C=C1CCC2C3(C)COC(C)(C)OC3CCC2(C)C1CC=C1C(=O)OCC1Oc1ccc(C(=O)OCC)cc1 (stereo not drawn) [5a9, (14α)-(4′-Carboxyethyl ester)phenoxy-3,19-acetonylidene andrographolide] |  | / (“/”represents no inhibition or lower than 10% inhibition rate at 250 μM of tested compound) |  | (45) % | inhibition rate (%) SA (S. aureus): (10) % |
| C=C1CCC2C3(C)COC(C)(C)OC3CCC2(C)C1CC=C1C(=O)OCC1Oc1ccccc1OC (stereo not drawn) [5a12, (14α)-(2′-Methoxy)phenoxy-3,19-acetonylidene andrographolide] |  | / (“/”represents no inhibition or lower than 10% inhibition rate at 250 μM of tested compound) |  |  | inhibition rate SA (symbol /) (S. aureus): / (“/”represents no inhibition or lower than 10% inhibition rate at 250 μM of tested compound); inhibition rate (%) EF (E. faecalis; 250 µM): (49) % |
| C=C1CCC2C3(C)COC(C)(C)OC3CCC2(C)C1CC=C1C(=O)OCC1Oc1cccnc1[N+](=O)[O-] (stereo not drawn) [5a15, (14α)-(2′-Nitro-pyridinyl-3′-oxy)-3,19-acetonylidene andrographolide] | (11) % |  | 25.5 ± 1.5 |  | inhibition rate (%) EC (E. coli): (13) % |
| C=C1CCC2C3(C)COC(C)(C)OC3CCC2(C)C1CC=C1C(=O)OCC1Oc1ccnc2ccccc12 (stereo not drawn) [5a16, (14α)-(Quinolyl-4′-oxy)-3,19-acetonylidene andrographolide] |  | / (“/”represents no inhibition or lower than 10% inhibition rate at 250 μM of tested compound) | 16.9 ± 5.9 |  | inhibition rate (%) SA (S. aureus): (14) % |
| C=C1CCC2C3(C)COC(C)(C)OC3CCC2(C)C1CC=C1C(=O)OCC1Oc1ccc([N+](=O)[O-])cc1C(=O)OC (stereo not drawn) [5b1, (14β)-(2′-Carboxymethyl ester-4′-nitro)phenoxy-3,19-acetonylidene andrographolide] | (20) % |  |  | (56) % | inhibition rate (%) EC (E. coli): (22) % |
| C=C1CCC2C3(C)COC(C)(C)OC3CCC2(C)C1CC=C1C(=O)OCC1Oc1ccc([N+](=O)[O-])cc1F (stereo not drawn) [5b2, (14β)-(2′-Fluoro-4′-nitro)phenoxy-3,19-acetonylidene andrographolide] |  |  |  | (56) % | inhibition rate (%) SA (S. aureus): (26) %; inhibition rate (%) EC (E. coli): (11) % |
| C=C1CCC2C3(C)COC(C)(C)OC3CCC2(C)C1CC=C1C(=O)OCC1Oc1ccc([N+](=O)[O-])cc1OC (stereo not drawn) [5b3, (14β)-(2′-Methoxy-4′-nitro)phenoxy-3,19-acetonylidene andrographolide] | (16) % | / (“/”represents no inhibition or lower than 10% inhibition rate at 250 μM of tested compound) |  |  | inhibition rate (%) EF (E. faecalis; 250 µM): (19) % |
| C=C1CCC2C3(C)COC(C)(C)OC3CCC2(C)C1CC=C1C(=O)OCC1Oc1ccc([N+](=O)[O-])c(OC)c1 (stereo not drawn) [5b5, (14β)-(3′-Methoxy-4′-nitro)phenoxy-3,19-acetonylidene andrographolide] | (32) % |  |  |  | inhibition rate (%) EC (E. coli; 250 µM): (18) %; inhibition rate (%) EF (E. faecalis; 250 µM): (34) % |
| C=C1CCC2C3(C)COC(C)(C)OC3CCC2(C)C1CC=C1C(=O)OCC1Oc1cccc([N+](=O)[O-])c1 (stereo not drawn) [5b7, (14β)-(3′-Nitro)phenoxy-3,19-acetonylidene andrographolide] |  | / (“/”represents no inhibition or lower than 10% inhibition rate at 250 μM of tested compound) |  |  | inhibition rate SA (symbol /) (S. aureus): / (“/”represents no inhibition or lower than 10% inhibition rate at 250 μM of tested compound); inhibition rate EF (symbol /) (E. faecalis; at 250 μM of tested compound): / (“/”represents no inhibition or lower than 10% inhibition rate at 250 μM of tested compound) |
| C=C1CCC2C3(C)COC(C)(C)OC3CCC2(C)C1CC=C1C(=O)OCC1Oc1ccc(OC)cc1 (stereo not drawn) [5b11, (14β)-(4′-Methoxy)phenoxy-3,19-acetonylidene andrographolide] |  | / (“/”represents no inhibition or lower than 10% inhibition rate at 250 μM of tested compound) |  | (39) % | inhibition rate SA (symbol /) (S. aureus): / (“/”represents no inhibition or lower than 10% inhibition rate at 250 μM of tested compound) |
| C=C1CCC2C3(C)COC(C)(C)OC3CCC2(C)C1CC=C1C(=O)OCC1Oc1ccccc1OC (stereo not drawn) [5b12, (14β)-(2′-Methoxy)phenoxy-3,19-acetonylidene andrographolide] |  | / (“/”represents no inhibition or lower than 10% inhibition rate at 250 μM of tested compound) |  |  | inhibition rate (%) SA (S. aureus): (24) %; inhibition rate (%) EF (E. faecalis; 250 µM): (52) % |
| C=C1CCC2C3(C)COC(C)(C)OC3CCC2(C)C1CC=C1C(=O)OCC1Oc1cccc(OC)c1 (stereo not drawn) [5b13, (14β)-(3′-Methoxy)phenoxy-3,19-acetonylidene andrographolide] |  | / (“/”represents no inhibition or lower than 10% inhibition rate at 250 μM of tested compound) |  | (17) % | inhibition rate SA (symbol /) (S. aureus): / (“/”represents no inhibition or lower than 10% inhibition rate at 250 μM of tested compound) |
| C=C1CCC2C3(C)COC(C)(C)OC3CCC2(C)C1CC=C1C(=O)OCC1Oc1cccc2ccccc12 (stereo not drawn) [5b14, (14β)-(Naphthyl-1′-oxy)-3,19-acetonylidene andrographolide] |  | / (“/”represents no inhibition or lower than 10% inhibition rate at 250 μM of tested compound) |  | (47) % | inhibition rate SA (symbol /) (S. aureus): / (“/”represents no inhibition or lower than 10% inhibition rate at 250 μM of tested compound) |
| C=C1CCC2C3(C)COC(C)(C)OC3CCC2(C)C1CC=C1C(=O)OCC1Oc1cccnc1[N+](=O)[O-] (stereo not drawn) [5b15, (14β)-(2′-Nitro-pyridinyl-3′-oxy)-3,19-acetonylidene andrographolide] | (33) % | / (“/”represents no inhibition or lower than 10% inhibition rate at 250 μM of tested compound) | 38.4 ± 3.4 |  |  |
| C=C1CCC2C(C)(CO)C(O)CCC2(C)C1CC=C1C(=O)OCC1Oc1ccc([N+](=O)[O-])cc1F (stereo not drawn) [6a2, (14α)-(2′-Fluoro-4′-nitro)phenoxy-andrographolide] | (65) % |  | 38.7 ± 4.5 |  | inhibition rate (%) EC (E. coli; 250 µM): (67) % |
| C=C1CCC2C(C)(CO)C(O)CCC2(C)C1CC=C1C(=O)OCC1Oc1ccc([N+](=O)[O-])cc1OC (stereo not drawn) [6a3, (14α)-(2′-Methoxy-4′-nitro)phenoxy-andrographolide] | (17) % |  | 113 ± 14.3 |  | inhibition rate (%) EC (E. coli; 250 µM): (31) % |
| C=C1CCC2C(C)(CO)C(O)CCC2(C)C1CC=C1C(=O)OCC1Oc1ccc([N+](=O)[O-])c(F)c1 (stereo not drawn) [6a4, (14α)-(3′-Fluoro-4′-nitro)phenoxy-andrographolide] |  | / (“/”represents no inhibition or lower than 10% inhibition rate at 250 μM of tested compound) |  | (44) % | inhibition rate SA (symbol /) (S. aureus): / (“/”represents no inhibition or lower than 10% inhibition rate at 250 μM of tested compound) |
| C=C1CCC2C(C)(CO)C(O)CCC2(C)C1CC=C1C(=O)OCC1Oc1ccc([N+](=O)[O-])c(OC)c1 (stereo not drawn) [6a5, (14α)-(3′-methoxy-4′-nitro)phenoxy-andrographolide] | (10) % |  | 50.4 ± 2.7 |  | inhibition rate (%) EC (E. coli; 250 µM): (11) % |
| C=C1CCC2C(C)(CO)C(O)CCC2(C)C1CC=C1C(=O)OCC1Oc1ccccc1C(=O)OCC (stereo not drawn) [6a8, (14α)-(2′-Carboxyethyl ester)phenoxy-andrographolide] |  |  | 83.3 ± 8.3 |  | inhibition rate (%) SA (S. aureus): (17) %; inhibition rate (%) EC (E. coli): (21) % |
